Measurements from US20030216378A1, “Azepino[4,5-b]pyrano[3,2-e]indoles” (priority 2000, published 2003).

SMILES: Cl.O=C(Cn1c2c(c3c4c(ccc31)OCCC4)CCNCC2)Nc1ccccc1
- melting point: > 250 °C (dec.)

SMILES: C1=Cc2c(ccc3[nH]c4c(c23)CCN(Cc2ccccc2)CC4)OC1
- melting point: 157 to 160 °C

SMILES: Cl.c1cc2[nH]c3c(c2c2c1OCCC2)CCNCC3
- melting point: > 283 °C (dec.)

SMILES: Cn1c2c(c3c4c(ccc31)OCC=C4)CCN(Cc1ccccc1)CC2 [Example 1, 10-Benzyl-7-methyl-7,8,9,10,11,12-hexahydro-3H-azepino[4,5-]pyrano[3,2-e]indole]
- melting point: 112 to 114 °C

SMILES: O=C(O)Cn1c2c(c3c4c(ccc31)OCC=C4)CCN(Cc1ccccc1)CC2 [Example 8]
- melting point: 185 to 187 °C

SMILES: O=C(Cn1c2c(c3c4c(ccc31)OCC=C4)CCN(Cc1ccccc1)CC2)Nc1ccccc1 [Example 9, 2-(10-benzyl-3,8,9,10,11,12-hexahydro-7H-azepino[4.5-b]pyrano[3,2-e]indol-7-yl)-N-phenylacetamide]
- melting point: 134 to 136 °C
